Laboratory results reported in patent US7632855B2, “Pyrazole compounds as HSP90 inhibitors for the treatment of cancer” (Vernalis (Cambridge) Limited, priority 2003, dated 2009).

Target: T1, human full-length HSP90 (Homo sapiens, UniProt P08238)
T1 construct: E. coli expressed human full-length HSP90 protein, purified >95%; made in house; host or cells: E. coli
Assay: Fluorescence Polarisation Assay (competitive displacement of probe RBT0045864-FAM from HSP90)
Type: binding
Details: E. coli expressed human full-length Hsp90 200 nM; probe RBT0045864-FAM 80 nM; read-out: Hsp90 FP IC50
Source text: Fluorescence Polarization Assay
Fluorescence polarization {also known as fluorescence anisotropy} measures the rotation of a fluorescing species in solution, where the larger molecule the more polarized the fluorescence emission. When the fluorophore is excited with polarized light, the emitted light is also polarized. The molecular size is proportional to the polarization of the fluorescence emission. The fluoroscein-labelled probe—RBT0045864-FAM—binds to HSP90 {full-length human, full-length yeast or N-terminal domain HSP90 } and the anisotropy {rotation of the probe-protein complex} is measured.
Compound is added to the assay plate, left to equilibrate and the anisotropy measured again. Any change in anisotropy is due to competitive binding of compound to HSP90, thereby releasing probe.
Chemicals are of the highest purity commercially available and all aqueous solutions are made up in AR water. • 1) Costar 96-well black assay plate #3915 • 2) Assay buffer of (a) 100 mM Tris pH7.4; (b) 20 mM KCl; (c) 6mM MgCl2. Stored at room temperature. • 3) BSA (bovine serum albumen) 10 mg/ml (New England Biolabs # B9001S) • 4) 20 mM RBT0045864 (pyrazole) in 100% DMSO stock concentration. Stored in the dark at RT. Made in-house, Kd^˜[…], depending on the protein used. Working concentration is 200 nM diluted in AR water and stored at 4° C. Final concentration in assay 80 nM. • 5) E. coli expressed human full-length HSP90 protein, purified >95% (see, e.g., Panaretou et al., EMBO J., Vol. 17, pp. 4829-4836, 1998) and stored in 50 μL aliquots at −80° C. Protocol • 1) Add 100 μl 1× buffer to wells 11A and 12A (=FP BLNK) • 2) Prepare assay mix—all reagents are kept on ice with a lid on the bucket as the probe is light-sensitive.
• 3) Aliquot 100 μl assay mix to all other wells • 4) Seal plate and leave in dark at room temp for 20 minutes to equilibrate Compound Dilution Plate—1×3 Dilution Series • 1) In a clear 96-well v-bottom plate—{# VWR 007/008/257} add 10 μl 100% DMSO to wells B1 to H11 • 2) To wells A1 to A11 add 17.5 μl 100% DMSO • 3) Add 2.5 μl cpd to A1. This gives 2.5 mM {50×} stock cpd—assuming cpds 20 mM. • 4) Repeat for wells A2 to A10. Control in columns 11 and 12. • 5) Transfer 5 μl from row A to row B—not column 12. Mix well. • 6) Transfer 5 μl from row B to row C. […] In column 11 {provides standard curve} only add compound B11-H11. Add 2 μl of 100 mM standard cpd to wells B12-H12 {is positive control}
The Z′ factor is calculated from zero controls and positive wells. It typically gives a value of 0.7-0.9.

T1 sequence (P08238 whole entry): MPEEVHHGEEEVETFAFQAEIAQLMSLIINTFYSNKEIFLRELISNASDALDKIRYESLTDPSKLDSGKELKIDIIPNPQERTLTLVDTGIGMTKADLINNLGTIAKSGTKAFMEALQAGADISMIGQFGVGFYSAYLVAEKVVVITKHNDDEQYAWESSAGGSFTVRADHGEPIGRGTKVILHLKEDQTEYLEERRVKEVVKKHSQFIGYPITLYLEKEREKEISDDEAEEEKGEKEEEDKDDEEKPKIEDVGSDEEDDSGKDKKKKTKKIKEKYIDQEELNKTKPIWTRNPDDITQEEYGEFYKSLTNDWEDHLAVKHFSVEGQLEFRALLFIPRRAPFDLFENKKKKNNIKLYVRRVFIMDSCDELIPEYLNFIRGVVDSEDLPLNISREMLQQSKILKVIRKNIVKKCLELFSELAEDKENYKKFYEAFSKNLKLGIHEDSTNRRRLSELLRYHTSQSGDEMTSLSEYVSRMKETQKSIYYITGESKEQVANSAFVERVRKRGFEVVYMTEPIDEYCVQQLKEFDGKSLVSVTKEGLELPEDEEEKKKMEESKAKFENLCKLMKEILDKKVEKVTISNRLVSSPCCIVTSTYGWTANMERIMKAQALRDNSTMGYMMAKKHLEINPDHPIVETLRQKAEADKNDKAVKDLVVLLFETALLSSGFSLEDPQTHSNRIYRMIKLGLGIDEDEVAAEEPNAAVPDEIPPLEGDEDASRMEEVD

IC50, < 10 µM:
COC(=O)C(C)NC(=O)c1[nH]nc(-c2cc(Cl)c(O)cc2O)c1-c1ccc(OC)cc1 (stereo not shown) [Example 3], COc1ccc(-c2c(-c3cc(Cl)c(O)cc3O)n[nH]c2C(=O)NC(C)C(=O)O)cc1 (stereo not shown) [Example 4], COC(=O)CNC(=O)c1[nH]nc(-c2cc(Cl)c(O)cc2O)c1-c1ccc(OC)cc1 [Example 6], COC(=O)[C@@H](C)NC(=O)c1[nH]nc(-c2cc(Cl)c(O)cc2O)c1-c1ccc(OC)cc1 [Example 7], COC(=O)[C@H](C)NC(=O)c1[nH]nc(-c2cc(Cl)c(O)cc2O)c1-c1ccc(OC)cc1 [Example 8], COc1ccc(-c2c(-c3cc(Cl)c(O)cc3O)n[nH]c2C(=O)N[C@H](C)C(N)=O)cc1 [Example 9], COc1ccc(-c2c(-c3cc(Cl)c(O)cc3O)n[nH]c2C(=O)N[C@@H](C)C(N)=O)cc1 [Example 10], COc1ccc(-c2c(-c3cc(Cl)c(O)cc3O)n[nH]c2C(=O)N[C@H](C)C(=O)N2CCN(C)CC2)cc1 [Example 12], CNC(=O)[C@@H](C)NC(=O)c1[nH]nc(-c2cc(Cl)c(O)cc2O)c1-c1ccc(OC)cc1 [Example 13], COc1ccc(-c2c(-c3cc(Cl)c(O)cc3O)n[nH]c2C(=O)N[C@H](C)C(=O)NC(C)C)cc1 [Example 14], COc1ccc(-c2c(-c3cc(Cl)c(O)cc3O)n[nH]c2C(=O)N[C@H](C)C(=O)NCCN(C)C)cc1 [Example 15], COc1ccc(-c2c(-c3cc(Cl)c(O)cc3O)n[nH]c2C(=O)N[C@H](C)C(=O)NCCN2CCOCC2)cc1 [Example 16], CCNC(=O)[C@@H](C)NC(=O)c1[nH]nc(-c2cc(Cl)c(O)cc2O)c1-c1ccc(OC)cc1 [Example 18]
